# Experimental data from patent US20180200257A1, “METHODS FOR THE TREATMENT OF INFLAMMATORY DISORDERS” (Galapagos NV, priority 2015, published 2018).
# Test system: Subjects With Active Crohn's Disease With Evidence of Mucosal Ulceration
# Experiment: Study 3 - Crohn's Disease Activity Index (CDAI) scores
# Type: in vivo, human
# From the text: Double-Blind, Randomized, Placebo-Controlled, Multi-Centre Study to Investigate the Efficacy and Safety of Compound 1 in Subjects With Active Crohn's Disease With Evidence of Mucosal Ulceration. This is a double-blind, randomized, placebo-controlled, multi-centre Phase 2 study to investigate the efficacy and safety of Compound 1 administered once daily for the treatment of active CD with evidence of mucosal ulceration. The pharmacokinetics (including a PK substudy) and pharmacodynamics of Compound 1 and metabolite in CD will also be characterised. A total of 180 eligible subjects will be randomized to receive Compound 1 or placebo in addition to their stable background treatment (eg, corticosteroids, aminosalicylates, or CD-related antibiotics). The study will consist of 2 parts, with total treatment duration of 20 weeks. Randomization in Part 1 will be stratified according the subject's previous anti-TNF exposure/response, CRP level at Screening, and oral corticosteroid use at visit Day −1. After the first 10 weeks of treatment in Part 1, patients will be re-randomized for Part 2 as shown in the diagram below and will be stratified according to the subject's clinical response, previous anti-TNF exposure/response, and oral corticosteroid use at visit Day -1. [table] The Crohn's disease activity index (CDAI) is a numerical calculation derived from the sum of products from a list of 8 items (see Table CXXVI below), and multiplied by weighting factors for each item to define the severity of “disease activity” in patients with Crohn's disease (CD)[1]. Essentially, the CDAI represents a numerical estimation of a physician's interpretation of patient symptoms. Index values of 150 and below are associated with quiescent or non-active disease (i.e. “remission”). Values over 150 are indicative of active disease, and over 450, extremely severe disease.% In the present study, clinical remission is defined as a CDAI score of <150 points, and a clinical response is defined as a decrease in CDAI score of at least 100 points.
# [1] = 200 mg, LOCF, baseline corticosteroid use: with steroids
# [2] = 200 mg, LOCF, baseline corticosteroid use: without steroids
# [3] = 200 mg, week 10, Anti-TNF Naïve
# [4] = 200 mg, week 10, Anti-TNF experienced non-responders
# [5] = 200 mg, week 10, LOCF, screening CRP ≤ 10 ml/L
# [6] = 200 mg, week 10, LOCF, screening CRP ≥ 10 mg/L
# [7] = initial 200 mg non-responders, continued 200 mg, week 10
# [8] = initial 200 mg non-responders, continued 200 mg, week 20
# [9] = initial 200 mg non-responders, to placebo, week 10
# [10] = initial 200 mg non-responders, to placebo, week 20
# [11] = initial 200 mg responders, continued 200 mg, week 10
# [12] = initial 200 mg responders, continued 200 mg, week 20
# [13] = initial 200 mg responders, to 100 mg, week 10
# [14] = initial 200 mg responders, to 100 mg, week 20
# [15] = initial 200 mg responders, to placebo, week 10
# [16] = initial 200 mg responders, to placebo, week 20
# [17] = initial placebo non-responders switching to 100 mg at week 10, week 20
smiles,measurement,setting,value
"O=C(Nc1nc2cccc(-c3ccc(CN4CCS(=O)(=O)CC4)cc3)n2n1)C1CC1 [Compound 1, cyclopropanecarboxylic acid {5-[4-(1,1-dioxo-thiomorpholin-4-ylmethyl)-phenyl]-[1,2,4]triazolo[1,5-a]pyridin-2-yl}-amide]",70 point clinical response (CDAI improvement ≥ 70 points),[1],70%
same,100 point clinical response (CDAI improvement ≥ 100 points),[1],60%
same,Clinical Remission (CDAI < 150),[1],52%
same,70 point clinical response (CDAI improvement ≥ 70 points),[2],72%
same,100 point clinical response (CDAI improvement ≥ 100 points),[2],71%
same,Clinical Remission (CDAI < 150),[2],48%
same,70 point clinical response (CDAI improvement ≥ 70 points),[3],81%
same,"100 point clinical response (CDAI improvement ≥ 100 points), LOCF",[3],74%
same,"Clinical Remission (CDAI < 150), LOCF",[3],65%
same,70 point clinical response (CDAI improvement ≥ 70 points),[4],63%
same,"100 point clinical response (CDAI improvement ≥ 100 points), LOCF",[4],59%
same,"Clinical Remission (CDAI < 150), LOCF",[4],38%
same,70 point clinical response (CDAI improvement ≥ 70 points),[5],73%
same,100 point clinical response (CDAI improvement ≥ 100 points),[5],66%
same,Clinical Remission (CDAI < 150),[5],46%
same,70 point clinical response (CDAI improvement ≥ 70 points),[6],69%
same,100 point clinical response (CDAI improvement ≥ 100 points),[6],65%
same,Clinical Remission (CDAI < 150),[6],56%
same,"100 point clinical response (CDAI improvement ≥ 100 points), LOCF","200 mg, week 10, overall",66%
same,"100 point clinical response (CDAI improvement ≥ 100 points), NRI","200 mg, week 10, overall",60%
same,"Clinical Remission (CDAI < 150), LOCF","200 mg, week 10, overall",50%
same,"Clinical Remission (CDAI <150), NRI","200 mg, week 10, overall",48%
same,"Clinical Remission (CDAI < 150), LOCF",[7],16%
same,"Clinical Remission (CDAI <150), NRI",[7],16%
same,"Clinical Remission (CDAI <150), OC",[7],16%
same,"Clinical Response (CDAI ≥70), LOCF",[7],44%
same,"Clinical Response (CDAI ≥70), NRI",[7],44%
same,"Clinical Response (CDAI ≥70), OC",[7],44%
same,"Clinical Response (CDAI ≥100), LOCF",[7],32%
same,"Clinical Response (CDAI ≥100), NRI",[7],32%
same,"Clinical Response (CDAI ≥ 100), OC",[7],32%
same,"Clinical Remission (CDAI < 150), LOCF",[8],28%
same,"Clinical Remission (CDAI <150), NRI",[8],24%
same,"Clinical Remission (CDAI <150), OC",[8],30%
same,"Clinical Response (CDAI ≥70), LOCF",[8],44%
same,"Clinical Response (CDAI ≥70), NRI",[8],40%
same,"Clinical Response (CDAI ≥70), OC",[8],50%
same,"Clinical Response (CDAI ≥100), LOCF",[8],36%
same,"Clinical Response (CDAI ≥100), NRI",[8],32%
same,"Clinical Response (CDAI ≥ 100), OC",[8],40%
same,"Clinical Remission (CDAI < 150), LOCF",[9],0%
same,"Clinical Remission (CDAI <150), NRI",[9],0%
same,"Clinical Remission (CDAI <150), OC",[9],0%
same,"Clinical Response (CDAI ≥70), LOCF",[9],22%
same,"Clinical Response (CDAI ≥70), NRI",[9],11%
same,"Clinical Response (CDAI ≥70), OC",[9],13%
same,"Clinical Response (CDAI ≥100), LOCF",[9],22%
same,"Clinical Response (CDAI ≥100), NRI",[9],11%
same,"Clinical Response (CDAI ≥ 100), OC",[9],13%
same,"Clinical Remission (CDAI < 150), LOCF",[10],33%
same,"Clinical Remission (CDAI <150), NRI",[10],33%
same,"Clinical Remission (CDAI <150), OC",[10],38%
same,"Clinical Response (CDAI ≥70), LOCF",[10],44%
same,"Clinical Response (CDAI ≥70), NRI",[10],44%
same,"Clinical Response (CDAI ≥70), OC",[10],50%
same,"Clinical Response (CDAI ≥100), LOCF",[10],33%
same,"Clinical Response (CDAI ≥100), NRI",[10],33%
same,"Clinical Response (CDAI ≥ 100), OC",[10],38%
same,"Clinical Remission (CDAI < 150), LOCF",[11],67%
same,"Clinical Remission (CDAI <150), NRI",[11],63%
same,"Clinical Remission (CDAI <150), OC",[11],70%
same,"Clinical Response (CDAI decrease ≥100 points), OC",[11],93%
same,"Clinical Response (CDAI ≥70), LOCF",[11],100%
same,"Clinical Response (CDAI ≥70), NRI",[11],90%
same,"Clinical Response (CDAI ≥70), OC",[11],100%
same,"Clinical Response (CDAI ≥100), LOCF",[11],93%
same,"Clinical Response (CDAI ≥100), NRI",[11],83%
same,"Clinical Remission (CDAI < 150), LOCF",[12],57%
same,"Clinical Remission (CDAI <150), NRI",[12],50%
same,"Clinical Remission (CDAI <150), OC",[12],58%
same,"Clinical Response (CDAI decrease ≥100 points), OC",[12],77%
same,"Clinical Response (CDAI ≥70), LOCF",[12],80%
same,"Clinical Response (CDAI ≥70), NRI",[12],70%
same,"Clinical Response (CDAI ≥70), OC",[12],81%
same,"Clinical Response (CDAI ≥100), LOCF",[12],77%
same,"Clinical Response (CDAI ≥100), NRI",[12],67%
same,"Clinical Remission (CDAI < 150), LOCF",[13],87%
same,"Clinical Remission (CDAI <150), NRI",[13],87%
same,"Clinical Remission (CDAI <150), OC",[13],87%
same,"Clinical Response (CDAI decrease ≥100 points), OC",[13],97%
same,"Clinical Response (CDAI ≥70), LOCF",[13],100%
same,"Clinical Response (CDAI ≥70), NRI",[13],100%
same,"Clinical Response (CDAI ≥70), OC",[13],100%
same,"Clinical Response (CDAI ≥100), LOCF",[13],97%
same,"Clinical Response (CDAI ≥100), NRI",[13],97%
same,"Clinical Remission (CDAI < 150), LOCF",[14],63%
same,"Clinical Remission (CDAI <150), NRI",[14],60%
same,"Clinical Remission (CDAI <150), OC",[14],75%
same,"Clinical Response (CDAI decrease ≥100 points), OC",[14],92%
same,"Clinical Response (CDAI ≥70), LOCF",[14],83%
same,"Clinical Response (CDAI ≥70), NRI",[14],77%
same,"Clinical Response (CDAI ≥70), OC",[14],96%
same,"Clinical Response (CDAI ≥100), LOCF",[14],80%
same,"Clinical Response (CDAI ≥100), NRI",[14],73%
same,"Clinical Remission (CDAI < 150), LOCF",[15],79%
same,"Clinical Remission (CDAI <150), NRI",[15],71%
same,"Clinical Remission (CDAI <150), OC",[15],77%
same,"Clinical Response (CDAI decrease ≥100 points), OC",[15],92%
same,"Clinical Response (CDAI ≥70), LOCF",[15],100%
same,"Clinical Response (CDAI ≥70), NRI",[15],93%
same,"Clinical Response (CDAI ≥70), OC",[15],100%
same,"Clinical Response (CDAI ≥100), LOCF",[15],93%
same,"Clinical Response (CDAI ≥100), NRI",[15],86%
same,"Clinical Remission (CDAI < 150), LOCF",[16],79%
same,"Clinical Remission (CDAI <150), NRI",[16],71%
same,"Clinical Remission (CDAI <150), OC",[16],77%
same,"Clinical Response (CDAI decrease ≥100 points), OC",[16],85%
same,"Clinical Response (CDAI ≥70), LOCF",[16],93%
same,"Clinical Response (CDAI ≥70), NRI",[16],86%
same,"Clinical Response (CDAI ≥70), OC",[16],92%
same,"Clinical Response (CDAI ≥100), LOCF",[16],86%
same,"Clinical Response (CDAI ≥100), NRI",[16],79%
same,"Clinical Remission (CDAI < 150), LOCF",[17],32%
same,"Clinical Remission (CDAI <150), NRI",[17],32%
same,"Clinical Remission (CDAI <150), OC",[17],33%
same,"Clinical Response (CDAI ≥70), LOCF",[17],68%
same,"Clinical Response (CDAI ≥70), NRI",[17],68%
same,"Clinical Response (CDAI ≥70), OC",[17],71%
same,"Clinical Response (CDAI ≥100), LOCF",[17],59%
same,"Clinical Response (CDAI ≥100), NRI",[17],59%
same,"Clinical Response (CDAI ≥ 100), OC",[17],62%
